Series [1] in a line: Hydrodynamic particle size (dynamic light scattering). Type of series: physicochemical. The settings on record: neutral pH (e.g. around 7). Here is the method: Dynamic light scattering (DLS) was performed with a Zetasizer Nano ZS (Malvern Panalytical, Almelo, Netherlands) to determine the hydrodynamic particle size of the NP at 25° C.in water (refractive index 1.33; viscosity 0.8872 mPa-s; backscattering mode at 173°). The same device was used to measure the particle's aqueous zeta potential with 78.5 as dielectric constant. Measurements were done in triplicate at an iron concentration of 50 μg/ml and pH of 7.4, the results were averaged.

Series [2] relates to LPS (E. coli LPS O55:B5, O26:B6, O111:B4). Briefly: LPS (endotoxin) binding, EndoZyme Recombinant Factor C Assay. Particulars: 10 EU/ml LPS. Here is the method: In order to evaluate general parameters of the concentration and incubation time with SPIONs, the inventors analysed conditions that are representative for these parameters. A high and a low particle concentration, as well as two exposure conditions were tested (agitation for 30 sec and 3 sec; particle concentration of 0.01 mg Fe/ml and 1 mg Fe/ml) were tested with the peptide exposing SPION^APTES-SBA-SPP04 and non-peptide exposing SPION^HAP. The concentration of peptide for the functionalized particles was assumed to be 0.08 μmol peptide/mg Fe, as assessed above. As other particles have been reported to bind certain amounts of LPS unspecifically, SPION^HAp are interesting for our experiments concerning this concern as a control.
Binding studies of endotoxin were performed with EndoZyme Recombinant Factor C Assay kit (Hyglos, Germany). In this kit, LPS is detected by recombinant Factor C, thus excluding possible interferences by p-glucans. Calibration curves for the three different LPSs have been prepared in endotoxin free water. SPION^APTES-SBA-SPP04 was used in this study as its efficacy has been described previously. For this experiment, we used two different iron concentrations (1 mg Fe/ml and 0.01 mg Fe/ml) and two incubation parameters (30 s at 1400 rpm and 37° C. as well as 3 s at RT). Three different LPSs were added to 200 μl of the different particle dispersions. The final concentration of LPS was set to 10 EU/ml in each tested sample. Spiking controls (8 and 5 EU/ml) were carried out to see if any interference occurred for all tested particles.
Supernatants were produced using a neodymium magnet (310 mT at separation side) for three minutes. 50 μl of each supernatant were mixed with 50 μl of the assay reagent (80% v/v assay buffer, 10% v/v substrate, 10% v/v enzyme) in black, endotoxin-free 96-well plates. The reaction was monitored for 90 minutes at 37° C. in 15 min intervals by recording the fluorescence at an excitation wavelength of 360 nm and an emission at 465 nm in a Filter-Max F5 Plate reader (Molecular Devices).

For series [3], the system named is lipoteichonic acids (LTA). Briefly: Binding of LTA in aqueous Ringer' solution. The settings on record: 0.3 mg Fe/ml, 2.5 ng/ml LTA; for LTA bound: 5 minutes at 37° C., magnet 3 minutes. Here is the method: The binding of a further relevant toxin (from gram-positive bacteria) was also investigated with the improved particles as disclosed herein, which was not described in Karawacka et al. (2018). These experiments were performed in aqueous Ringer' solution. […] For this experiment, 2.5 ng/ml LTA were used and incubated for 5 minutes at 37° C. on a shaker at 700 rpm. Subsequently, the particles were separated magnetically for 3 minutes. […] SPION^APTES-SBA-SPP04/SPION^APTES-SBA-SPP19 could bind 0.75 ng/ml LTA and 0.97 ng/ml, respectively. Thus, a reduction of LTA by 30% and 29%, respectively, could be detected by using the improved particles SPION^APTES-SBA-SPP04/SPION^APTES-SBA-SPP19 as disclosed herein.

A short description of series [4]: Separation of micromer^LPS (artificial gram-negative bacteria). The settings on record: initial 0.1 mg/ml micromer^LPS, 1 mg/ml Fe, 2 h, OD 620 nm. As to the method:
For a better understanding of the separation process, the inventors tried to remove artificial micromers to simulate bacteria. For this, LPS coated polystyrene/polymethacrylate Micromer® particles (micromer^LPS) were used and removed from a water suspension instead of living bacteria. […] This experiment was performed by optical density measurements at 620 nm, as it is done for actual bacteria.
For this experiment micromer® particles (micromer) were incubated with endotoxin to receive endotoxin coated micromer particles (micromer^LPS). Any other polymeric particles of similar size could have been used as an alternative. It has been reported, that endotoxins stick to surfaces and can be attached to polymeric particles. Therefore, particles bearing 1 mg particles/ml was incubated with 1 μg/ml endotoxin LPS3 for 2 h at 1400 rpm. After centrifugation the particles were washed several times.
SPION^APTES-SBA-SPP04 and unmodified SPION^HAp with a Fe concentration of 1 mg/ml were incubated with 0.1 mg micromer^LPS for 2 h at 1400 rpm and 37° ° C. SPION^APTES served as a control. A calibration curve was prepared with different concentrations of micromer^LPS. The calibration samples and the magnetically decanted supernatants were measured in the reader at 620 nm absorption wavelength like it is used for the OD measurements of bacteria (Brenner et al. 2005 and Chen et al. 2011). […]

For series [5], the system named is E. coli. Nature of the series: Magnetic separation of E. coli from aqueous medium (Ringer solution). Type of series: cell-based. The settings on record: 5 minutes incubation, 3 minutes separation. Here is the method:
E. coli were incubated with particles for 5 minutes and then separated for 3 minutes. Supernatants were plated out. […] A reduction of the particle amount to 0.1 mg Fe/ml led to a reduced bacterial separation 170 CFUS).

For a further series, the system named is Staphylococcus aureus. Nature of the series: Depletion of Staphylococcus aureus from aqueous medium. The class given is cell-based. The settings on record: for Staphylococcus aureus after separation: from 1393 CFU/ml, 0.3 mg Fe/ml, Ringer's solution; for CFU of re-plated bacteria loaded particles: re-plating, S. aureus. The text has this:
For testing the separation of S. aureus from a sample, particles were functionalized with the peptides SPP04 and SPP19 for this experiment. The bacterial suspension was adjusted to an OD (measured at 600 nm) of 0.13 and then diluted 1:800 with Ringer's solution. […] It could also be shown that the particles have no toxic effect on the bacteria. For Staphylococcus aureus (gram+) a reduction from 1393 CFU/ml to 27 CFU/ml for SPION^APTES-SBA-SPP04 and 73 CFU/ml for SPION^APTES-SBA-SPP19 could be achieved by separation as shown in FIG. 12.

For the next series, the system named is Pseudomonas aeruginosa. Nature of the series: Depletion of Pseudomonas aeruginosa from aqueous medium. The class given is cell-based. Particulars: from 5320 CFU/ml, 0.3 mg Fe/ml. Here is the method: (§1) Analogous observations are shown in FIG. 13 for the gram negative bacterium Pseudomonas aeruginosa reduction from 5320 CFU/ml to 2 CFU/ml for SPION^APTES-SBA-SPP04 and 7 CFU/ml for SPION^APTES-SBA-SPP19 could be achieved. For Serratia marcescens (gram−) a reduction from 1300 CFU/ml to 26 CFU/ml for SPION^APTES-SBA-SPP04 could be achieved as shown in FIG. 14. Redispersed particles that were plated out yielding a recovery of 1227 CFU/ml for SPION^APTES-SBA-SPP04, which is similar to the positive control.

A further series concerns Serratia marcescens. Nature of the series: Depletion of Serratia marcescens from aqueous medium. The class given is cell-based. Here is the method: as §1
In series [6] the test system is E. coli. Briefly: Separation of E. coli from blood. The class given is cell-based. Here is the method:
For this experiment, E. coli was added to blood and then 0.3 mg Fe/ml particles were used to extract/separate the bacteria. Thus, the remaining bacterial load in the blood was tested as a first aspect of this experiment. Furthermore, citrate and EDTA-stabilized blood was used and compared, as EDTA is expected to hinder the binding of the peptide to the bacteria. Therefore, the depletion of bacteria is expected to be lower in EDTA-stabilized blood compared to citrate-stabilized blood. The overall bacterial load in citrate stabilized blood amounted to 1913 colony forming units per milliliter (CFU/ml) (FIG. 15). SPION^APTES-SBA-SPP04 particles reduced the concentration to 927 CFU/ml in citrate-stabilized blood. […] For completeness, in EDTA-stabilized blood, the amount of CFUs was reduced from 2867 CFU/ml to 1733 CFU/ml by SPION^APTES-SBA-SPP04. Thus, a reduction of around 40% was achieved.
In this experiment we used blood from health volunteers and added an amount of bacteria to it. A concentration of 0.3 mg Fe/ml was used for the particles. To 0.8 ml of blood, (citrate or EDTA stabilized) 0.1 bacteria suspension in Ringer's solution have been added. After 5 min. of incubation, 0.1 ml of particles (3 mg Fe/ml) in Ringer's solution have been added. Samples were incubated for 5 minutes on a shaker at 700 rpm. After incubation, the particles have been removed by placing a magnet (310 mT) behind the samples. After 3 min separation of the particles the supernatant were plated out. As a negative control only 0.2 ml Ringer's solution was added to blood. The positive control consisted of 0.8 ml blood and 0.1 ml bacteria suspension and another 0.1 ml Ringer's solution. In addition the particles were washed one time after separation and then redispersed in Ringer's solution and plated out.
After 16 h of incubation, the CFUs (colony forming units) on the plates have been counted. The samples have been compared to the amount found in the positive control.

A further series has as its system bacteria. Nature of the series: Concentration of viable bacteria (10 ml sample, plating). Type of series: cell-based. The settings on record: 0.3 mg Fe/ml, 30 minutes, 310 mT 3 minutes, 10 ml to 0.5 ml. Here is the method:
In this experiment, an approach as used with common blood cultures in order to identify pathogens was chosen. The total volume was set to 10 ml. The bacterial suspension was adjusted to an OD (measured at 600 nm) of 0.13 with Ringer's solution analogous to the previous experiments. A sample, which was not treated with SPIONs, served as a control. A concentration of 0.3 mg Fe/ml SPION^APTES-SBA-SPP04 was used. Incubation was performed for 30 minutes at room temperature on a rolling incubator. The particles were then magnetically separated for 3 minutes at 310 mT. 0.5 ml Ringer's solution was added to the particle pellets and vortexed. […] A total of 50 μl was plated out for each sample. […] Compared to common blood cultures, bacterial pathogens can be detected faster by using this method, because the amplification step of the bacteria using blood culture bottles could be omitted.

Entries after “also recorded” stand apart in the source; their conditions may differ. Ends that are not written are not given here.

On to “SPION^APTES-SBA-SPP04: APTES-coated SPIONs linked via SBA to peptide SPP04 (SEQ ID NO: 1) (RKQGRVEVLYRASWGTVC; also: conjugated via SBA linker to APTES-coated SPIONs)”, for which the “particle diameter after functionalization with peptide” value in series [1] amounted to 2.54 μm. In addition, the “binding of LPS” value in [2] (0.01 mg Fe/ml (FIG. 8C, D)) is listed as “about 50%”. In addition, the “reduction / binding of LPS, all LPS types” value in [2] (0.01 mg Fe/ml, 3 seconds) is listed as “at least 40%”. Moreover, the “reduction of LPS, all three LPS types” value in series [2] (0.01 mg Fe/ml, 30 seconds) is “at least 48%”. Besides, in [2] (1 mg Fe/ml, 3 s), the LPS bound is on record as 94% and the “remaining LPS” value is on record as “up to 6%”. Further, in series [2] (1 mg Fe/ml, 30 s of agitation), the “LPS removal” value was “completely removed the LPS below the detection limit; also recorded: completely removed the endotoxin below the detection limit”. Also, in [3], the “reduction of LTA” value is reported as 30% and the LTA bound is 0.75 ng/mL. Further, the “remaining micromer^LPS” value in series [4] was determined as 0.023 mg/mL. The “E. coli in supernatant” value in the series with E. coli [5] (0.1 mg Fe/ml) stood at 170 CFUs. For the same substance, the “E. coli in supernatant” value in the series with E. coli [5] (1.0 mg Fe/ml) is 2 CFU/ml. Besides, in the series on Staphylococcus aureus, the “Staphylococcus aureus after separation” value is 27 CFU/ml and the “CFU of re-plated bacteria loaded particles” value was “in the range of the positive control; also recorded: even increased”. In addition, the “Pseudomonas aeruginosa after separation” value with Pseudomonas aeruginosa turned out to be 2 CFU/ml. Moreover, in the series on Serratia marcescens (from 1300 CFU/ml, 0.3 mg Fe/ml), the “Serratia marcescens after separation” value was 26 CFU/ml. Further, the “recovery from redispersed, plated particles” value with Serratia marcescens (re-plating, Serratia marcescens) worked out at 1227 CFU/ml. In the series with E. coli [6] (EDTA-stabilized blood), the “replating of extracted bacteria” value came to 1066 CFU/ml. In addition, the “reduction of bacterial load” value in the series on E. coli [6] (EDTA-stabilized blood, 0.3 mg Fe/ml) is “around 40%”. For the same substance, in the series on E. coli [6] (EDTA-stabilized blood, from 2867 CFU/ml, 0.3 mg Fe/ml), the “E. coli remaining in blood” value turned out to be 1733 CFU/ml. The “replating of extracted bacteria” value in the series on E. coli [6] (citrate-stabilized blood) is recorded as 913 CFU/ml. The “E. coli remaining in blood” value in the series on E. coli [6] (citrate-stabilized blood, from 1913 CFU/ml, 0.3 mg Fe/ml) was 927 CFU/ml. For the same substance, the “plating of sample concentrated with SPIONs” value in the series with bacteria is listed as “dense bacterial lawn”.
Turning to “SPION^APTES-SBA-SPP19: APTES-coated SPIONs linked via SBA to peptide SPP19 (SEQ ID NO: 2) (RKQGRVEILYRGSWGTVC; also: conjugated via SBA linker to APTES-coated SPIONs)”, in series [3], the “reduction of LTA” value was determined as 29% and the LTA bound stood at 0.97 ng/mL. Also, in the series with Staphylococcus aureus, the “Staphylococcus aureus after separation” value is 73 CFU/ml and the “CFU of re-plated bacteria loaded particles” value is recorded as “in the range of the positive control”. For the same substance, in the series on Pseudomonas aeruginosa, the “Pseudomonas aeruginosa after separation” value stood at 7 CFU/ml.

For the origin of these results see US20240125775A1, “IMMOBILIZATION AND MAGNETIC EXTRACTION OF PATHOGENS AND PATHOGEN COMPONENTS” (priority 2020, published 2024).
